Assay results as given in patent US20160067267A1, “MYO-INOSITOL TRISPYROPHOSPHATE AS AN ANTI-OBESITY AGENT” (NormOxys, Inc., priority 2013, published 2016).

How the values were obtained:
[1] = Second study: prevention of weight gain on high fat diet, ITPP in drinking water, 70 days; format: in vivo; settings: FIG. 2
Protocol: (§1) Experiments were conducted in analogue ways. First, 30 Balb/c-mice, 10 mice in each group, were assessed. Group 1 was a control group; mice were fed with normal mouse food and water for the whole duration of the experiment (120 days). […] Group III was fed with high fat diet, normal food and, instead of normal water, animals drank an ITPP solution for the duration of the experiment of (ITPP). The concentration was 10 g ITPP per liter water, containing no calcium salt, pH˜6.8-7.2).
(§2) The HFD was 235HF (U8955 version 9) casein 20%, corn starch 13%, sucrose 24.3%, cellulose 5%, malto dextrin 2.2%, lard 25%, soja oil 2.5%, mineral 205B SAFE 7%, and vitamine 200 SAFE 1%.
(§3) All food, water, and ITPP were given ad libitum. In 5 days intervals, body weights from each animal were recorded.
As before, in 5 days intervals body weights of the Balb/c-mice were measured.

[2] = First study: prevention of weight gain on high fat diet, ITPP in drinking water, 120 days; format: in vivo
Protocol: as §1, §2, §3

[3] = Third study: weight loss of overweight mice on normal food drinking ITPP solution, about 30 days; format: in vivo, Balb/c-mice; settings: FIG. 3, normal mouse food, water with ITPP 10 g per liter
Protocol: In a third study the group with the 10 mice which had gained weight (˜30%) was divided in two groups (5 animals per cage). For 1 month, one group drank water while the other one drank an ITPP-solution (10 g/L) for about 30 days until the date of observation. The food was normal mouse food as before (pellets from SAFE, France). The body weights of the mice were measured 4 times until the final day.

In the case of `O=P1(O)OC2C3OP(=O)(O)OP(=O)(O)OC3C3OP(=O)(O)OP(=O)(O)OC3C2OP(=O)(O)O1` (stereo not drawn) [ITPP, inositol-tripyrophosphate], the “tolerability of ITPP” value ([1]; HFD + ITPP 10 g/L in drinking water) is reported as “tolerated very well”, the “weight of Balb/c mice” value ([1]; HFD/ITPP consumers, 10 g/L in drinking water, 70 days, HFD/water mice ~40 g) is reported as < 30 g and the weight gain ([1]; HFD/ITPP consumers, 70 days, HFD/water mice gained approximately 30%) is reported as “did not gain significant weight”. For the same compound, the “weight of Balb/c mice” value ([2]; FIG. 1, HFD + ITPP solution 10 g per liter water ad libitum, oral, 70 days after beginning, HFD/water mice ~40 g) was ~30 g, the “tolerability of ITPP solution” value ([2]; FIG. 1, HFD + ITPP solution 10 g/L ad libitum, oral) was “well tolerated” and the “first day with significant differences in weight, HFD/water versus HFD/ITPP” value ([2]; HFD + ITPP in water versus HFD + water) was 10 days. For the same compound, the “weight increase of ITPP drinking group on HFD” value ([2]; HFD + ITPP in water, whole period of the experiment, compared with normal-food control group) was “did not increase their weight at all”, the “mortality and general condition” value ([2]; orally offered ITPP solution with HFD, two periods (120 days and 70 days), fur, eyes, vitality normal) was “No animal died or was suffering” and the “weight loss versus untreated group” value [3] was “lost considerably more weight than the untreated group”.
